The text below walks through data of ChEMBL document CHEMBL2406945, “Integrated Synthesis and Testing of Substituted Xanthine Based DPP4 Inhibitors: Application to Drug Discovery” (ACS Med Chem Lett, 2013).

For assay [1], the target named is Dipeptidyl peptidase 4 (Sus scrofa) (UniProt P22411). Description: Inhibition of porcine DPP4 assessed as residual enzyme activity using H-Gly-Pro-AMC as substrate by fluorescence assay.
Assay [2] concerns the target T1, Dipeptidyl peptidase 4 (Sus scrofa, UniProt P22411). In words: Inhibition of porcine DPP4 using H-Gly-Pro-AMC as substrate by fluorescence assay.
In assay [3] the target is T1, Dipeptidyl peptidase 4. Description: Inhibition of porcine DPP4.
For assay [4], the target named is Dipeptidyl peptidase 4 (Homo sapiens, UniProt P27487). Description: Inhibition of human DPP4 using H-Gly-Pro-AMC as substrate by fluorescence assay.
Chain of Dipeptidyl peptidase 4 (Homo sapiens, UniProt P27487) (P27487 whole entry): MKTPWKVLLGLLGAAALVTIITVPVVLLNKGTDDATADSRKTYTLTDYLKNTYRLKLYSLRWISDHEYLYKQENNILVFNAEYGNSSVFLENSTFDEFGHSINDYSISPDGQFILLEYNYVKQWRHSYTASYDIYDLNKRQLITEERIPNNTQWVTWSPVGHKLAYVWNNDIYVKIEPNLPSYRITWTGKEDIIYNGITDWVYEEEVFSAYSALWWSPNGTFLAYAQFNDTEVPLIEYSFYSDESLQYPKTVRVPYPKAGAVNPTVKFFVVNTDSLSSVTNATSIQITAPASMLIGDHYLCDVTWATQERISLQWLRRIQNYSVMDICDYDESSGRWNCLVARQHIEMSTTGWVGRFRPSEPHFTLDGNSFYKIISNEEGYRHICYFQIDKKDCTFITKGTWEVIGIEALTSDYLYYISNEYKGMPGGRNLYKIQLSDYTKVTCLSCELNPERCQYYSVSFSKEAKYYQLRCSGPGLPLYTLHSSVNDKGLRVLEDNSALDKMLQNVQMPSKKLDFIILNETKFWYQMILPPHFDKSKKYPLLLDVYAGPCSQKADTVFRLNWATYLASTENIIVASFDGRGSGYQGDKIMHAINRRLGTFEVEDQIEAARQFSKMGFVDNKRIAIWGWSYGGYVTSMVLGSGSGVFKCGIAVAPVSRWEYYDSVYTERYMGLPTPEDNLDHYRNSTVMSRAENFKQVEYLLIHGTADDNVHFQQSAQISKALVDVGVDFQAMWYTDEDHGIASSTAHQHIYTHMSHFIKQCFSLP

T1 sequence (P22411 whole entry): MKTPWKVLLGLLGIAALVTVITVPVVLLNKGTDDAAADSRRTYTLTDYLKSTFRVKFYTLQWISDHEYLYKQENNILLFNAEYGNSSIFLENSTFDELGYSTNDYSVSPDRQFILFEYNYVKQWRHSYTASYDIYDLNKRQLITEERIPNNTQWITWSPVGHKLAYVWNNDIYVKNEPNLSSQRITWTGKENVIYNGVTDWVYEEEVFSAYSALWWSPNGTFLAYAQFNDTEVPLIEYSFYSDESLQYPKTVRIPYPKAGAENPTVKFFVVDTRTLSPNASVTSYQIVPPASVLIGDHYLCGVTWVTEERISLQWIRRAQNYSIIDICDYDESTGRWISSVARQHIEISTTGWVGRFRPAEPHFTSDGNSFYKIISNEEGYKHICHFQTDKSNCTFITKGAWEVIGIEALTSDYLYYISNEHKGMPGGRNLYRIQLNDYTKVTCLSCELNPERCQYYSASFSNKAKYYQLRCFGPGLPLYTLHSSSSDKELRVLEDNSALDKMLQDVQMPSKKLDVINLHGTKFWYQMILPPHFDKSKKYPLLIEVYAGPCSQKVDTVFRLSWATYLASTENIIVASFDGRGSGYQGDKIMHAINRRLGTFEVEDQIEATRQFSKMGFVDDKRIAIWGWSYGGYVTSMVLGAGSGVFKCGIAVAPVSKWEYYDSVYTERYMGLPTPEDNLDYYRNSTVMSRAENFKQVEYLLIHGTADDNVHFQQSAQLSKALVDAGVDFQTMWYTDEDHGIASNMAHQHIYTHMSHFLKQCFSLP
Chain of Dipeptidyl peptidase 4 (Sus scrofa) (P22411 whole entry, looked up): as the sequence (P22411 whole entry) above

For `CC(C)=CCn1c(OC[C@@H](N)Cc2ccccc2)nc2c1c(=O)n(C)c(=O)n2C`, the Activity in assay [1] amounted to 430 nM. For `CC(C)=CCn1c(OC[C@@H]2CCCN2)nc2c1c(=O)n(CC(=O)c1ccccc1)c(=O)n2C`, the results for the IC50 at Dipeptidyl peptidase 4 [2] and at Dipeptidyl peptidase 4 [3] were 16 nM and 17 nM, respectively. Also, in assay [1], the Activity was 2.6 nM.

In the case of `CC(C)=CCn1c(OC[C@H](C)N)nc2c1c(=O)n(C)c(=O)n2C`, the Activity in assay [1] came to 780 nM. Consider `CC(C)=CCn1c(OCC(C)(C)CN)nc2c1c(=O)n(CC(=O)c1ccccc1)c(=O)n2C`, for which the IC50 (as a rule, the midpoint of a concentration-inhibition curve) against Dipeptidyl peptidase 4 [2] came to 6.5 nM; against Dipeptidyl peptidase 4 [3], 9 nM. The Activity in assay [1] amounted to 6 nM. The matching figures for `CC(C)=CCn1c(N2CCC[C@@H](N)C2)nc2c1c(=O)n(CC(=O)c1ccccc1)c(=O)n2C`: 0.73 nM, under 40 nM and 0.7 nM. Turning to `CC(C)=CCn1c(N2CCC3CNCC32)nc2c1c(=O)n(C)c(=O)n2C` (configuration not stated), the IC50 at Dipeptidyl peptidase 4 [2] came to 130 nM; at Dipeptidyl peptidase 4 [3], 210 nM. The Activity in assay [1] was 132 nM. For `CC(C)=CCn1c(OCC(C)(C)CN)nc2c1c(=O)n(C)c(=O)n2C`, the Activity in assay [1] worked out at 260 nM. Take `CC(C)=CCn1c(N2CC3CCCNC3C2)nc2c1c(=O)n(CC(=O)c1ccccc1)c(=O)n2C` (configuration not stated): in assay [1], the Activity was 269 nM. As to `CC(C)=CCn1c(N2CC3CCCNC3C2)nc2c1c(=O)n(C)c(=O)n2C` (configuration not stated), the Activity in assay [1] is over 24500 nM.

Regarding `CC(C)=CCn1c(OC[C@H]2CCCN2)nc2c1c(=O)n(CC(=O)c1ccccc1)c(=O)n2C`, the IC50 against Dipeptidyl peptidase 4 [2] was determined as 705 nM; against Dipeptidyl peptidase 4 [3], 2500 nM. Further, the Activity in assay [1] is 580 nM.

As for `CC(C)=CCn1c(N2CCC[C@@H](N)C2)nc2c1c(=O)n(C)c(=O)n2C`, in assay [1], the Activity came out at 11 nM. Take `CC(C)=CCn1c(N2CCNCC2)nc2c1c(=O)n(CC(=O)c1ccccc1)c(=O)n2C`: the Activity in assay [1] was found to be 11 nM. For `CC(C)=CCn1c(OC[C@H]2CCCN2)nc2c1c(=O)n(C)c(=O)n2C`, the Activity in assay [1] was over 7000 nM.

In the case of `CC(C)=CCn1c(N2CCNCC2)nc2c1c(=O)n(C)c(=O)n2C`, the Activity in assay [1] turned out to be 173 nM. For the molecule `CC(C)=CCn1c(O[C@@H]2CCNC2)nc2c1c(=O)n(C)c(=O)n2C`, the Activity in assay [1] was over 7000 nM. Still for that read-out and setting: the result for `CC(C)=CCn1c(OC[C@@H]2CCCN2)nc2c1c(=O)n(C)c(=O)n2C` reads 1600 nM; that for `CC(C)=CCn1c(N2CC3CCNC3C2)nc2c1c(=O)n(C)c(=O)n2C` (configuration not stated), 6000 nM; that for `CC(C)=CCn1c(N2CCC[C@H](N)C2)nc2c1c(=O)n(C)c(=O)n2C`, 6 nM. Same read-out and setting: for `CC(C)=CCn1c(OC2CCNCC2)nc2c1c(=O)n(C)c(=O)n2C` the value was over 5000 nM. With `CC(C)=CCn1c(OC2CCNCC2)nc2c1c(=O)n(CC(=O)c1ccccc1)c(=O)n2C`, the IC50 against Dipeptidyl peptidase 4 [2] is 275 nM; at Dipeptidyl peptidase 4 [4], over 1000 nM; at Dipeptidyl peptidase 4 [3], 1100 nM. The Activity in assay [1] is 275 nM. Consider `CC(C)=CCn1c(O[C@H]2CCNC2)nc2c1c(=O)n(C)c(=O)n2C`, for which, in assay [1], the Activity is over 8000 nM.

Take `CC(C)=CCn1c(O[C@@H](C)CN)nc2c1c(=O)n(CC(=O)c1ccccc1)c(=O)n2C`: in assay [1], the Activity was determined as 420 nM.

Regarding `CC(C)=CCn1c(N2CCC[C@H](N)C2)nc2c1c(=O)n(CC(=O)c1ccccc1)c(=O)n2C`, the Activity in assay [1] worked out at 4 nM. For the molecule `CC(C)=CCn1c(OCCCN)nc2c1c(=O)n(CC(=O)c1ccccc1)c(=O)n2C`, in assay [1], the Activity amounted to 22 nM.
